Common to all, as to format: cell-based
In one test the test system is RET (LC2/ad-CDC6). The test is described as follows: Cancer cell proliferation inhibition, MTS assay, 72 hours. The note with it: 72 h. On the procedure: (§1) MTS assay was performed to evaluate the cancer cell proliferation inhibition (cancer cell apoptosis) effect of the compounds of examples of the present invention. Particularly, the assay was performed using the cancer cell lines GIST-T1, GIST-T1/816, GIST-430, GIST-430/654, GIST-R1, GIST-R3, M-NFS-60, RetParental (Ba/F3), Retwt (Ba/F3), RetV804M (Ba/F3), RET (LC2/ad-CDC6), FYN (MCP-1), FYN (FN), MDA-MB-231, Huh7, K562, T315I(Ba/F3), SK-MEL-28 and A375. Cell culture was performed using a medium suitable for each cell line.
(§2) Other cell lines were seeded in a 96-well plate containing the corresponding medium appropriate for each cell line at the density of 3,000 cells/well, followed by culture in a 5% CO2 and 37° C. incubator for 24 hours. The compounds of examples of the present invention were added to each well at the concentration of from the highest volume of 50 μM to every step of serial dilution. The solvent control, dimethylsulfoxide (DMSO), was treated at the same concentration of 0.05% (v/v) as the volume used for the treatment of the compounds above. Each cell line was cultured for 72 hours. To investigate the cell viability, the MTS and PMS (phenazine methosulfate) mixture provided in CellTiter 96® AQuous Non-Radioactive Cell Proliferation Assay Kit (Promega) was added to each cell culture medium, followed by additional culture at 37° C. for 2 hours. Then, OD450 was measured. Based on OD of the solvent control cells not treated with any compounds of the present invention, the cell proliferation inhibition rate was calculated according to the treatment concentration of each compound. At this time, the concentration of each compound that was able to inhibit cancer cell proliferation up to 50% was determined as IC50 (uM). IC50 of each compound was determined with three data sets and calculated by using Prism softwater (version 6.01, GraphPad).
On the technique in general: Tetrazolium assays rely on reduction of a dye to a coloured formazan, in cell work by metabolically active cells.

The next test has as its system MDA-MB-231. In words: Real time cell proliferation, IncuCyte ZOOM, 72 hours.
The next test concerns A375. In words: Cancer cell proliferation inhibition, CCK-8, 72 hours. On the procedure:
as §1
(§3) In the meantime, MDA-MB-231 and A375 cells were seeded in a 96well plate at the density of 2×10^3/100 μl/well, which stood for a day for attachment. The culture fluid was eliminated. After removing the culture medium, the medium was replaced with the culture medium containing the compounds of the present invention at 3-times serially diluted 9 concentrations (0.0015-10 μM) and the DMSO control, followed by incubation in a 37° C. CO2 incubator for 72 hours. On the other hand, K-562 and Ba/F3-T315I cells were seeded in a 96-well plate at the density of 1×10^4/90 μl/well. The plate containing K-562 cells was added with the culture medium containing the compounds of the present invention at 3-times serially diluted 9 concentrations (0.015-100 μM) and the DMSO control (10 μl/well). The plate containing Ba/F3-T315I cells was added with the culture medium containing the compounds of the present invention at 5-times serially diluted 9 concentrations (0.000256-100 μM) and the DMSO control (10 μl/well). The final concentration was made 0-10 μM and then the cells were cultured in a 37° C. CO2 incubator for 72 hours.
(§4) A375, K-562 and Ba/F3-T315I cells were added with CCK-8 solution at the concentration of 10 μl/well, followed by orbital shaking for 30 seconds. Then, the cells were cultured in a 37° C. CO2 incubator for 2 hours. OD450 was measured by using a microplate reader. The OD value of the well treated with the culture medium and CCK-8 solution alone was subtracted from the OD value measured above, followed by calculation of IC50 using GraphPad Prism 6 software.

The next test concerns K562. The description is as above. On the procedure: as §1, §3, §4
Another test concerns the target T1, T315I (Ba/F3) (Homo sapiens, UniProt P00519, T315I, cells depend on it).
T1 construct: fused on or other part: P11274 (Breakpoint cluster region protein)
The description is as above. The note with it: read-out: T315I (Ba/F3) IC50. On the procedure:
as §1, §3, §4

The test system of the next test is Huh7. The test is described as follows: Cancer cell proliferation inhibition, MTS assay, 72 hours. As to conditions: Homo sapiens, Huh-7. On the procedure: as §1, §2

Read-outs that look alike come from different tables or passages of the source.

By IC50 is commonly meant the midpoint of a concentration-inhibition curve. `Cc1ccc(NC(=O)Nc2cc(C(C)(C)C(F)(F)F)on2)cc1C#Cc1cnc2c(Nc3cnn(C(C)C)c3)cccn12` [Example 85, 1-(3-((8-((1-isopropyl-1H-pyrazol-4-yl)amino)imidazo[1,2-a]pyridin-3-yl)ethynyl)-4-methylphenyl)-3-(5-(1,1,1-trifluoro-2-methylpropan-2-yl)isoxazol-3-yl)urea]: the concentration for half-maximal inhibition (IC50) in the test on RET (LC2/ad-CDC6) is > 10 nM; with MDA-MB-231 (Homo sapiens, MDA-MB-231, 72 h), > 10000 nM; in the test on A375 (Homo sapiens, A-375, 72 h) it was > 10000 nM; with K562 (Homo sapiens, K562, 72 h) it was 290 nM. In addition, the GI50 at T315I (Ba/F3) stood at 3080 nM.
As for `CCn1cc(Nc2cccn3c(C#Cc4cc(C(=O)Nc5ccc(CN6CC[C@H](N(C)C)C6)c(C(F)(F)F)c5)ccc4C)cnc23)cn1` [Example 54, (S)—N-(4-((3-(dimethylamino)pyrrolidin-1-yl)methyl)-3-(trifluoromethyl)phenyl)-3-((8-((1-ethyl-1H-pyrazol-4-yl)amino)imidazo[1,2-a]pyridin-3-yl)ethynyl)-4-methylbenzamide], the IC50 with RET (LC2/ad-CDC6) is > 10 nM; with MDA-MB-231 (Homo sapiens, MDA-MB-231, 72 h), 388 nM; in the test on A375 (Homo sapiens, A-375, 72 h), 454 nM; with K562 (Homo sapiens, K562, 72 h), < 1 nM. Besides, the GI50 on T315I (Ba/F3) was determined as 30.9 nM.
In the same order, the values of `Cc1cc(Nc2cccn3c(C#Cc4cc(C(=O)Nc5ccc(CN6CCC(N(C)C)C6)c(C(F)(F)F)c5)ccc4C)cnc23)no1` (stereo not drawn) [Example 45, N-(4-((3-(dimethylamino)pyrrolidin-1-yl)methyl)-3-(trifluoromethyl)phenyl)-4-methyl-3-((8-((5-methylisoxazol-3-yl)amino)imidazo[1,2-a]pyridin-3-yl)ethynyl)benzamide] are > 10 nM, 816 nM, 720 nM, 2 nM and 145 nM.
In the same order, the values of `COCCCn1cc(Nc2cccn3c(C#Cc4cc(C(=O)Nc5ccc(CN6CCN(C)[C@@H](C)C6)c(C(F)(F)F)c5)ccc4C)cnc23)cn1` [Example 46, (S)—N-(4-((3,4-dimethylpiperazin-1-yl)methyl)-3-(trifluoromethyl)phenyl)-3-((8-((1-(3-methoxypropyl)-1H-pyrazol-4-yl)amino)imidazo[1,2-a]pyridin-3-yl)ethynyl)-4-methylbenzamide] are > 10 nM, 273 nM, 250 nM, 7 nM and 6.27 nM.
On to `Cc1ccc(C(=O)Nc2ccc(CN3CCCN(C)CC3)c(C(F)(F)F)c2)cc1C#Cc1cnc2c(Nc3cnn(CCCN(C)C)c3)cccn12` [Example 39, 3-((8-((1-(3-(dimethylamino)propyl)-1H-pyrazol-4-yl)amino)imidazo[1,2-a]pyridin-3-yl)ethynyl)-4-methyl-N-(4-((4-methyl-1,4-diazepin-1-yl)methyl)-3-(trifluoromethyl)phenyl)benzamide], for which the IC50 with Huh7 was determined as 457 nM; with MDA-MB-231 (Homo sapiens, MDA-MB-231, 72 h), 1460 nM; in the test with A375 (Homo sapiens, A-375, 72 h), 1520 nM; in the test with K562 (Homo sapiens, K562, 72 h) it was 43 nM. The GI50 at T315I (Ba/F3) worked out at 238 nM.
Regarding `Cc1ccc(C(=O)Nc2ccc(CN3CCN(C)[C@@H](C)C3)c(C(F)(F)F)c2)cc1C#Cc1cnc2c(Nc3cnn(CCCN(C)C)c3)cccn12` [Example 49, (S)-3-((8-((1-(3-(dimethylamino)propyl)-1H-pyrazol-4-yl)amino)imidazo[1,2-a]pyridin-3-yl)ethynyl)-N-(4-((3,4-dimethylpiperazin-1-yl)methyl)-3-(trifluoromethyl)phenyl)-4-methylbenzamide], the IC50 in the test with RET (LC2/ad-CDC6) is > 10 nM; with MDA-MB-231 (Homo sapiens, MDA-MB-231, 72 h) it was 513 nM; in the test with A375 (Homo sapiens, A-375, 72 h), 1020 nM; in the test with K562 (Homo sapiens, K562, 72 h), 5 nM. The GI50 at T315I (Ba/F3) was determined as 217 nM.
In the same order, the values of `CCn1cc(Nc2cccn3c(C#Cc4cc(C(=O)Nc5ccc(CN6CC[C@@H](N(C)C)C6)c(C(F)(F)F)c5)ccc4C)cnc23)cn1` [Example 53, (R)—N-(4-((3-(dimethylamino)pyrrolidin-1-yl)methyl)-3-(trifluoromethyl)phenyl)-3-((8-((1-ethyl-1H-pyrazol-4-yl)amino)imidazo[1,2-a]pyridin-3-yl)ethynyl)-4-methylbenzamide] are > 10 nM, 324 nM, 285 nM, < 1 nM and 2.67 nM.
For `Cc1ccc(C(=O)Nc2ccc(CN3CCN(C)[C@H](C)C3)c(C(F)(F)F)c2)cc1C#Cc1cnc2c(Nc3cnn(C(C)C)c3)cccn12` [Example 81, (R)—N-(4-((3,4-dimethylpiperazin-1-yl)methyl)-3-(trifluoromethyl)phenyl)-3-((8-((1-isopropyl-1H-pyrazol-4-yl)amino)imidazo[1,2-a]pyridin-3-yl)ethynyl)-4-methylbenzamide], the IC50 was 1730 nM in the test with MDA-MB-231, 1960 nM in the test on A375 and 43 nM in the test on K562. Also, the GI50 at T315I (Ba/F3) worked out at 190 nM.
As for `Cc1ccc(NC(=O)C2(C(=O)Nc3ccc(F)cc3)CC2)cc1C#Cc1cnc2c(Nc3cnn(C)c3)cccn12` [Example 79], the IC50 in the test on Huh7 was 5650 nM; with MDA-MB-231 (Homo sapiens, MDA-MB-231, 72 h) it was > 10000 nM; with A375 (Homo sapiens, A-375, 72 h), > 10000 nM; in the test with K562 (Homo sapiens, K562, 72 h) it was 763 nM. For the same compound, the GI50 at T315I (Ba/F3) turned out to be 5410 nM.
As to `Cc1ccc(C(=O)Nc2ccc3ncsc3c2)cc1C#Cc1cnc2c(Nc3cnn(C)c3)cccn12` [Example 37, N-(benzo[d]thiazol-6-yl)-4-methyl-3-((8-((1-methyl-1H-pyrazol-4-yl)amino)imidazo[1,2-a]pyridin-3-yl)ethynyl)benzamide], the IC50 was 1800 nM in the test on Huh7; > 10000 nM in the test on MDA-MB-231 (Homo sapiens, MDA-MB-231, 72 h); > 10000 nM in the test with A375 (Homo sapiens, A-375, 72 h); 2 nM with K562 (Homo sapiens, K562, 72 h). Also, the GI50 at T315I (Ba/F3) was 663 nM.
Regarding `Cc1ccc(C(=O)Nc2ccc(CN3CCCN(C)CC3)c(C(F)(F)F)c2)cc1C#Cc1cnc2c(Nc3cnn(C(C)C)c3)cccn12` [Example 38, 3-((8-((1-isopropyl-1H-pyrazol-4-yl)amino)imidazo[1,2-a]pyridin-3-yl)ethynyl)-4-methyl-N-(4-((4-methyl-1,4-diazepin-1-yl)methyl)-3-(trifluoromethyl)phenyl)benzamide], the IC50 in the test with Huh7 is 247 nM; in the test on MDA-MB-231 (Homo sapiens, MDA-MB-231, 72 h), 770 nM; in the test on A375 (Homo sapiens, A-375, 72 h), 668 nM; in the test on K562 (Homo sapiens, K562, 72 h), 19 nM. Also, the GI50 on T315I (Ba/F3) is 133 nM.
Consider `Cc1ccc(C(=O)Nc2ccc(CN3CCN(C)[C@@H](C)C3)c(C(F)(F)F)c2)cc1C#Cc1cnc2c(Nc3cnn(C(C)C)c3)cccn12` [Example 48, (S)—N-(4-((3,4-dimethylpiperazin-1-yl)methyl)-3-(trifluoromethyl)phenyl)-3-((8-((1-isopropyl-1H-pyrazol-4-yl)amino)imidazo[1,2-a]pyridin-3-yl)ethynyl)-4-methylbenzamide], for which the IC50 was > 10 nM in the test on RET (LC2/ad-CDC6); 382 nM in the test with MDA-MB-231 (Homo sapiens, MDA-MB-231, 72 h); 406 nM with A375 (Homo sapiens, A-375, 72 h); < 1 nM in the test on K562 (Homo sapiens, K562, 72 h). The GI50 at T315I (Ba/F3) was 86.3 nM.
`CCN1CCN(Cc2ccc(NC(=O)c3ccc(C)c(C#Cc4cnc5c(Nc6cnn(CCN(C)C)c6)cccn45)c3)cc2C(F)(F)F)CC1` [Example 73]: the IC50 in the test on MDA-MB-231 (Homo sapiens, MDA-MB-231, 72 h) was 916 nM; with K562 (Homo sapiens, K562, 72 h), < 1.5 nM. The GI50 on T315I (Ba/F3) is 421 nM.
As to `COCCn1cc(Nc2cccn3c(C#Cc4cc(C(=O)Nc5cc(-n6cnc(C)c6)cc(C(F)(F)F)c5)ccc4C)cnc23)cn1` [Example 71], the IC50 in the test on Huh7 came out at 955 nM; in the test with MDA-MB-231 (Homo sapiens, MDA-MB-231, 72 h), 4730 nM; in the test with K562 (Homo sapiens, K562, 72 h) it was 6 nM. The GI50 on T315I (Ba/F3) was 25.2 nM.

The values are drawn from patent publication US10870647B2, “Imidazopyridine derivative, method for preparing same, and pharmaceutical composition containing same as active ingredient for preventing or treating cancer” (DAEGU-GYEONGBUK MEDICAL INNOVATION FOUNDATION, priority 2016, dated 2020).
